# Laboratory results: ChEMBL document CHEMBL3120134, “A review of non-nucleoside anti-hepatitis B virus agents” (Eur J Med Chem, 2014)
# pEC50, pIC50: −log10 of the molar value.
# How the values were obtained:
# [1] = test system: Hepatitis B virus; assay: Antiviral activity against Hepatitis B virus; assay type: functional, organism-based
# [2] = test system: Hepatitis B virus; assay: Antiviral activity against Hepatitis B virus assessed as inhibition of Hepatitis B virus DNA replication; assay type: functional, organism-based
# [3] = test system: Hepatitis B virus; assay: Antiviral activity against Hepatitis B virus infected in human HepG2.2.15 cells assessed as decrease in HBV e antigen secretion at 200 ug/ml after 9 days by ELISA; assay type: functional; conditions: HepG2 2.2.15, 216 h
# [4] = test system: Duck hepatitis B virus; assay: Antiviral activity against Duck Hepatitis B virus infected in duckling assessed as decrease in DHBV level in serum at 120 mg/kg dosed through liquid diet for 10 days administered started on day 7 post-infection; assay type: functional
# [5] = test system: Hepatitis B virus; assay: Antiviral activity against Hepatitis B virus infected in human HepG2.2.15 cells assessed as decrease in HBV surface antigen secretion at 200 ug/ml after 9 days by ELISA; assay type: functional; conditions: HepG2 2.2.15, 216 h
# [6] = test system: Hepatitis B virus; assay: Antiviral activity against Hepatitis B virus infected in human HepG2.2.15 cells assessed as decrease in HBV surface antigen secretion; assay type: functional, organism-based, HepG2 2.2.15
# [7] = test system: Hepatitis B virus; assay: Antiviral activity against Hepatitis B virus infected in human HepG2.2.15 cells assessed as decrease in HBV e antigen secretion; assay type: functional, organism-based, HepG2 2.2.15
# [8] = test system: Hepatitis B virus; assay: Antiviral activity against Hepatitis B virus assessed as inhibition of virion production; assay type: functional, organism-based
# [9] = test system: Hepatitis B virus; assay: Antiviral activity against Hepatitis B virus infected in human Huh7 cells assessed as inhibition of HBV particles production; assay type: functional, organism-based; conditions: Huh-7
# [10] = Selectivity index, ratio of cytotoxicity towards human HepG2.2.15 cells to IC50 for HBV DNA production; assay type: toxicity, cell-based; conditions: read-out: Selectivity Index
# [11] = test system: Hepatitis B virus; assay: Antiviral activity against Hepatitis B virus infected in human HepG2.2.15 cells assessed as decrease in HBV DNA production; assay type: functional, organism-based; conditions: HepG2 2.2.15
# [12] = test system: Hepatitis B virus; assay: Antiviral activity against Hepatitis B virus assessed as inhibition of interaction between Trx-PreS and HBcAg; assay type: functional, organism-based
# [13] = Selectivity index, ratio of cytotoxicity towards human HepG2.2.15 cells to IC50 for HBV e antigen secretion; assay type: toxicity, cell-based; conditions: read-out: Selectivity Index
# [14] = Selectivity index, ratio of cytotoxicity towards human HepG2.2.15 cells to IC50 for HBV surface antigen secretion; assay type: toxicity, cell-based; conditions: read-out: Selectivity Index
# [15] = test system: Duck hepatitis B virus; assay: Antiviral activity against Duck Hepatitis B virus infected in duckling assessed as decrease in DHBV DNA replication at 0.2 g/kg dosed for 10 days; assay type: functional; conditions: 240 h
# [16] = test system: Hepatitis B virus; assay: Antiviral activity against Hepatitis B virus infected in human HepG2.2.15 cells assessed as decrease in HBV surface antigen secretion after 21 days; assay type: functional, organism-based; conditions: HepG2 2.2.15, 504 h
# [17] = test system: Hepatitis B virus; assay: Antiviral activity against Hepatitis B virus assessed as inhibition of Hepatitis B virus surface antigen secretion; assay type: functional, organism-based
# [18] = test system: Hepatitis B virus; assay: Antiviral activity against Hepatitis B virus assessed as inhibition of Hepatitis B virus e antigen secretion; assay type: functional, organism-based
# [19] = test system: Hepatitis B virus; assay: Antiviral activity against Hepatitis B virus infected in human HepG2.2.15 cells assessed as decrease in HBV DNA production by quantitative RT-PCR analysis; assay type: functional, organism-based; conditions: HepG2 2.2.15
# [20] = test system: Hepatitis B virus; assay: Antiviral activity against Hepatitis B virus infected in human HepG2.2.15 cells assessed as decrease in HBV e antigen secretion by ELISA; assay type: functional, organism-based; conditions: HepG2 2.2.15
# [21] = test system: Hepatitis B virus; assay: Antiviral activity against Hepatitis B virus infected in human HepG2.2.15 cells assessed as decrease in HBV surface antigen secretion by ELISA; assay type: functional, organism-based; conditions: HepG2 2.2.15
# [22] = test system: Hepatitis B virus; assay: Antiviral activity against Hepatitis B virus infected in human HepG2.2.15 cells assessed as decrease in HBV e antigen secretion after 9 days; assay type: functional, organism-based; conditions: HepG2 2.2.15, 216 h
# [23] = test system: Hepatitis B virus; assay: Antiviral activity against Hepatitis B virus infected in human MS-G2 cells assessed as decrease in HBV surface antigen production at 20 ug/ml; assay type: functional
# [24] = Hepatitis B virus, HepG2 2.2.15
smiles,measurement,setting,value
O=C(Nc1ncc(Cl)s1)c1ccccc1O,pEC50,[1],6.92
Cc1ccc(O)c(C(=O)Nc2ncc(Cl)s2)c1,pEC50,[1],6.92
Cc1ccc(C(=O)Nc2ncc(Cl)s2)c(O)c1,pEC50,[1],6.92
O=C(Nc1ncc(Br)s1)c1ccccc1O,pEC50,[1],6.92
NC(=O)c1cc2ccc3c(c2c(-c2ccc4c(c2)OCO4)c1C(=O)O)OCO3,pEC50,[1],6.10
CCOC(=O)c1c(C[S+]([O-])c2cccc(F)c2)n(C)c2cc(Br)c(O)c(CN3CCOCC3)c12 (centres undefined),IC50,[1],< 60 µg/mL
COC(=O)C1=C(C)NC(c2nccs2)=N[C@H]1c1ccc(F)cc1Cl,pIC50,[2],7.52
COC(=O)C1=C(C)NC(c2ncccc2F)=N[C@@H]1c1ccc(F)cc1Cl,pIC50,[2],6.82
CC(C)(O)[C@@H]1CC[C@](C)([C@H]2[C@@H](O)C[C@@]3(C)[C@@H]4C[C@H](O[C@@H]5O[C@H](CO)[C@@H](O)[C@H](O)[C@H]5O)[C@H]5C(C)(C)[C@@H](O[C@@H]6OC[C@@H](O)[C@H](O)[C@H]6O)CC[C@@]56C[C@@]46CC[C@]23C)O1,inhibition at 200 µg/mL,[3],23.3%
same,inhibition in vivo at 120 mg/kg,[4],64%
same,inhibition at 200 µg/mL,[5],31.8%
COc1cc2c(cc1OC)-c1c(C)c3ccc4c(c3c[n+]1CC2)OCO4.[OH-],inhibition (INH),[6],50%
same,inhibition (INH),[7],40%
COc1cc2c(cc1O)-c1c(C)c3ccc4c(c3c[n+]1CC2)OCO4.[OH-],inhibition (INH),[6],50%
same,inhibition (INH),[7],40%
COc1cc2c(cc1O)CC[n+]1cc3c4c(ccc3c(C)c1-2)OCO4.[OH-],inhibition (INH),[6],50%
same,inhibition (INH),[7],40%
COC(=O)c1nc(-c2csc([C@@H](NC(=O)c3cccs3)C(C)C)n2)oc1C,pIC50,[2],4.12
CC(C)Cc1sc(-c2nccs2)nc1C(=O)O,pIC50,[2],4.22
COC(=O)c1nc(-c2nccs2)sc1CC(C)C,pIC50,[2],5.62
CCOC(=O)c1nc(-c2nccs2)sc1CC(C)C,pIC50,[2],5.96
CCOC(=O)c1nc(-c2ncc(C)s2)sc1CC(C)C,pIC50,[2],6.85
Cc1ccc(-c2nnc3sc(CN)cn23)cc1,pIC50,[1],4.46
CC(=O)OC[C@H]1O[C@@H](Sc2nnc(-c3ccc(Cl)cc3)n2N)[C@H](OC(C)=O)[C@@H](OC(C)=O)[C@@H]1OC(C)=O,pIC50,[1],4.20
Nn1c(SC(c2ccccc2)c2ccccc2)nnc1-c1ccc(Cl)cc1,pIC50,[1],4.40
CCC(c1nnc(SCCN2CCN(c3ccccc3OC)CC2)o1)S(=O)(=O)c1ccccc1 (centres undefined),pEC50,[8],5.79
Cc1cc(C)n2nc(S)nc2c1,pIC50,[9],6.92
CCOC(=O)c1c(C[S+]([O-])c2ccc(F)c(F)c2)n(C)c2cc(Br)c(O)c(Cn3ccnc3C)c12 (centres undefined),IC50,[1],< 60 µg/mL
CCOC(=O)c1c(C[S+]([O-])c2ccc(F)cc2)n(C)c2cc(Br)c(O)c(CN3CCOCC3)c12 (centres undefined),IC50,[1],< 60 µg/mL
CCOC(=O)c1c(CS(=O)(=O)c2cccc(OC)c2)n(C)c2ccc(O)c(CN3CCCC3)c12,IC50,[1],< 60 µg/mL
CCOC(=O)c1c(CS(=O)(=O)c2ccc(C)cc2)n(C2CC2)c2ccc(O)c(Cn3ccnc3)c12,IC50,[1],< 60 µg/mL
CCOC(=O)c1cc2cc(OC)c(O)c(Cn3ccnc3)c2nc1C[S+]([O-])c1ccc(F)cc1 (centres undefined),selectivity ratio,[10],37.9
same,pIC50,[11],5.46
CCOC(=O)c1cc2cc(OC)c(O)c(Cn3ccnc3)c2nc1C[S+]([O-])c1ccc(F)c(F)c1 (centres undefined),selectivity ratio,[10],61.7
same,pIC50,[11],5.59
COc1cc2cc3c(nc2c(CN2CCCC2)c1O)-c1ccc(C)cc1SC3,pIC50,[11],> 5.00
COc1cc2cc3c(nc2c(CN2CCCCC2)c1O)-c1ccc(F)cc1SC3,pIC50,[11],> 5.00
COc1ccc2c(c1)-c1nc3c(CN4CCCCC4)c(O)c(OC)cc3cc1CS2,pIC50,[11],> 5.00
COc1cc2cc3c(nc2c(Cn2ccnc2C)c1O)-c1ccc(F)cc1SC3,selectivity ratio,[10],60.3
same,pIC50,[11],5.77
O=C1OC(OCc2ccccc2)=N/C1=C\c1ccccc1,pIC50,[12],5.27
CC(=O)O[C@H]([C@@H](O)C[C@@H](C)C1=C2C[C@H](O)[C@H]3[C@@]4(C)CCC(=O)C(C)(C)[C@@H]4CC[C@]3(C)[C@@]2(C)CC1)C(C)(C)O,pIC50,[6]; [24],6.22
C=C(C)[C@H](O)[C@@H](O)C[C@@H](C)C1=C2C[C@H](O)[C@H]3[C@@]4(C)CCC(=O)C(C)(C)[C@@H]4CC[C@]3(C)[C@@]2(C)CC1,pIC50,[6]; [24],6.22
C[C@@H]1C[C@@H]([C@@H](O)C(C)(C)O)O[C@H]2C[C@@]3(C)C(=C12)C[C@H](O)[C@H]1[C@@]2(C)CCC(=O)C(C)(C)[C@@H]2CC[C@@]13C,pIC50,[6]; [24],6.22
CC(=O)O[C@H]([C@@H]1C[C@@H](C)C2=C3C[C@H](O)[C@H]4[C@@]5(C)CCC(=O)C(C)(C)[C@@H]5CC[C@]4(C)[C@@]3(C)C[C@@H]2O1)C(C)(C)O,pIC50,[6]; [24],6.22
same,selectivity ratio,[13],18.5
same,pIC50,[7]; [24],5.29
O=C1NCc2c1cc1ccc3c(c1c2-c1ccc2c(c1)OCO2)OCO3,pEC50,[1],7.10
O=c1[nH][nH]c(=O)c2c(-c3ccc4c(c3)OCO4)c3c4c(ccc3cc12)OCO4,pEC50,[1],7.52
C[C@H](C[C@H](O)[C@@H](O)C(C)(C)O)[C@]12CC[C@@]3(C)[C@@]1(C[C@H](O)[C@H]1[C@@]4(C)CCC(=O)C(C)(C)[C@@H]4CC[C@@]13C)O2,pIC50,[6]; [24],6.22
C[C@@H]1CC[C@]2(C(=O)O[C@@H]3O[C@H](CO)[C@@H](O)[C@H](O)[C@H]3O)CC[C@]3(C)C(=CC[C@@H]4[C@@]5(C)C[C@@H](O)[C@H](O)C(C)(C)[C@@H]5CC[C@]43C)[C@@H]2[C@]1(C)O,selectivity ratio,[14],4.1
same,IC50,[6]; [24],57.7 µg/mL
same,selectivity ratio,[10],12.1
same,selectivity ratio,[13],7.86
same,IC50,[11],19.4 µg/mL
same,inhibition in vivo at 200 mg/kg,[15],58.5%
same,IC50,[7]; [24],30 µg/mL
CCN(CC)Cc1c(O)c(OC)cc2nc3c(cc12)CSc1ccc(C)cc1-3,pIC50,[11],> 5.00
CCN(CC)Cc1c(O)c(OC)cc2nc3c(cc12)CSc1cc(F)ccc1-3,pIC50,[11],> 5.00
COc1cc2nc3c(cc2c(CN2CCCCC2)c1O)CSc1c(C)cc(C)cc1-3,pIC50,[11],> 5.00
COC(=O)C1=C(C)NC(c2ncc(F)cc2F)=N[C@H]1c1ccc(F)cc1Cl,pIC50,[2],7.30
C[C@@H]1CC[C@H]2[C@@H](C)C(=O)O[C@@H]3O[C@@]4(C)CC[C@@H]1[C@]32OO4 [ARTEMISININ],pIC50,[16],4.26
C[C@H]1[C@H](OC(=O)CCC(=O)O)O[C@@H]2O[C@@]3(C)CC[C@H]4[C@H](C)CC[C@@H]1[C@@]24OO3 [ARTESUNATE],pIC50,[16],5.64
COc1ccc2c(c1OC)CN(C)c1c-2ccc2cc3c(cc12)OCO3 [DIHYDROCHELERYTHRINE],pIC50,[17],> 7.30
same,pIC50,[18],> 7.30
O=C1OCc2c1cc1ccc3c(c1c2-c1ccc2c(c1)OCO2)OCO3 [HELIOXANTHIN],pEC50,[1],6.00
Nc1ccn([C@@H]2CS[C@H](CO)O2)c(=O)n1 [LAMIVUDINE],pIC50,[2],6.59
same,selectivity ratio,[10],7
same,pIC50,[11],3.46
Cc1oc2nc1C(=O)N[C@@H](C)c1nc(co1)C(=O)N[C@@H](CC(C)C)C(=O)N1CCC[C@H]1C(=O)N[C@@H](C(C)C)c1nc-2cs1 [LEUCAMIDE A],pIC50,[2],4.12
CC(=O)Oc1ccccc1C(=O)Nc1ncc([N+](=O)[O-])s1 [NITAZOXANIDE],pEC50,[1],6.92
O=Cc1ccc(O)c(O)c1 [PROTOCATECHUALDEHYDE],IC50,[19],4.17 µg/mL
same,EC50,[20],2.46 µg/mL
same,EC50,[21],3.94 µg/mL
Cc1cc(O)c2c(c1)C(=O)c1cccc(O[C@@H]3O[C@H](CO)[C@@H](O)[C@H](O)[C@H]3O)c1C2=O [PULMATIN],selectivity ratio,[14],> 42
same,selectivity ratio,[10],> 42
same,selectivity ratio,[13],> 42
COc1c(O)cc(O)c2c(=O)cc(-c3ccccc3)oc12 [WOGONIN],IC50,[22],4 µg/mL
same,inhibition at 20 µg/mL,[23],45.4%
